Assay results: article PMC8333425, “Discovery of a dual Ras and ARF6 inhibitor from a GPCR endocytosis screen” (Nature Communications, 2021)
Entries after “also recorded” stand apart in the source; their conditions may differ.

Legend:
[1] = system: HEK293 cells; details: Barbadin 100 µM; cited from earlier work
[2] = system: AT1R; details: Barbadin 100 µM; cited from earlier work
[3] = target: T1, 384 kinases from the human genome (Homo sapiens, UniProt P43403); assay: KINOMEscan kinase binding assay; details: kinase ZAP70 (Entrez ZAP70)
T1 construct: purchased Eurofin/DiscoverX
Summary of the method: (§1)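 Competition binding (KINOMEscan) across 384 human kinases with compound at 10 µM. Ligand binding was expressed relative to DMSO (100%) as the average of duplicates from one experiment. S(10) selectivity score was derived.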

[4] = target: T2, 384 kinases from the human genome (Homo sapiens, UniProt Q99755); assay: KINOMEscan kinase binding assay; details: kinase PIP5K1A (Entrez PIP5K1A)
T2 construct: purchased Eurofin/DiscoverX
Summary of the method: as §1

[5] = target: T3, 384 kinases from the human genome (Homo sapiens, UniProt O14976); assay: KINOMEscan kinase binding assay; details: kinase GAK (Entrez GAK)
T3 construct: purchased Eurofin/DiscoverX
Summary of the method: as §1

[6] = target: T4, 384 kinases from the human genome (Homo sapiens, UniProt Q32MK0); assay: KINOMEscan kinase binding assay; details: kinase MLCK (Entrez MYLK3)
T4 construct: purchased Eurofin/DiscoverX
Summary of the method: as §1

[7] = target: T5, 384 kinases from the human genome (Homo sapiens, UniProt P16234); assay: KINOMEscan kinase binding assay; details: kinase PDGFRA (Entrez PDGFRA)
T5 construct: purchased Eurofin/DiscoverX
Summary of the method: as §1

[8] = target: T6, 384 kinases from the human genome (Homo sapiens, UniProt Q9UEW8); assay: KINOMEscan kinase binding assay; details: kinase STK39 (Entrez STK39)
T6 construct: purchased Eurofin/DiscoverX
Summary of the method: as §1

[9] = target: T7, 384 kinases from the human genome (Homo sapiens, UniProt Q8NEB9); assay: KINOMEscan kinase binding assay; details: kinase VPS34 (Entrez PIK3C3)
T7 construct: purchased Eurofin/DiscoverX
Summary of the method: as §1

[10] = target: T8, 384 kinases from the human genome (Homo sapiens, UniProt O15264); assay: KINOMEscan kinase binding assay; details: kinase p38-delta (Entrez MAPK13)
T8 construct: purchased Eurofin/DiscoverX
Summary of the method: as §1

[11] = target: T9, 384 kinases from the human genome (Homo sapiens, UniProt Q8TBX8); assay: KINOMEscan kinase binding assay; details: kinase PIP5K2C (Entrez PIP4K2C)
T9 construct: purchased Eurofin/DiscoverX
Summary of the method: as §1

[12] = target: T10, 384 kinases from the human genome (Homo sapiens, UniProt P53667); assay: KINOMEscan kinase binding assay; details: kinase LIMK1 (Entrez LIMK1)
T10 construct: purchased Eurofin/DiscoverX
Summary of the method: as §1

[13] = target: T11, 384 kinases from the human genome (Homo sapiens, UniProt P68400); assay: KINOMEscan kinase binding assay; details: kinase CSNK2A1 (Entrez CSNK2A1)
T11 construct: purchased Eurofin/DiscoverX
Summary of the method: as §1

[14] = target: T12, 384 kinases from the human genome (Homo sapiens, UniProt Q9H2X6); assay: KINOMEscan kinase binding assay; details: kinase HIPK2 (Entrez HIPK2)
T12 construct: purchased Eurofin/DiscoverX
Summary of the method: as §1

[15] = target: T13, 384 kinases from the human genome (Homo sapiens, UniProt P0C1S8); assay: KINOMEscan kinase binding assay; details: kinase WEE2 (Entrez WEE2)
T13 construct: purchased Eurofin/DiscoverX
Summary of the method: as §1

[16] = target: T14, 384 kinases from the human genome (Homo sapiens, UniProt P04049); assay: KINOMEscan kinase binding assay; details: kinase RAF1 (Entrez RAF1)
T14 construct: purchased Eurofin/DiscoverX
Summary of the method: as §1

[17] = target: T15, 384 kinases from the human genome (Homo sapiens, UniProt Q04759); assay: KINOMEscan kinase binding assay; details: kinase PRKCQ (Entrez PRKCQ)
T15 construct: purchased Eurofin/DiscoverX
Summary of the method: as §1

[18] = target: T16, 384 kinases from the human genome (Homo sapiens, UniProt P08069); assay: KINOMEscan kinase binding assay; details: kinase IGF1R (Entrez IGF1R)
T16 construct: purchased Eurofin/DiscoverX
Summary of the method: as §1

[19] = target: T17, 384 kinases from the human genome (Homo sapiens, UniProt P14616); assay: KINOMEscan kinase binding assay; details: kinase INSRR (Entrez INSRR)
T17 construct: purchased Eurofin/DiscoverX
Summary of the method: as §1

[20] = target: T18, 384 kinases from the human genome (Homo sapiens, UniProt Q8NG66); assay: KINOMEscan kinase binding assay; details: kinase NEK11 (Entrez NEK11)
T18 construct: purchased Eurofin/DiscoverX
Summary of the method: as §1

[21] = target: T19, 384 kinases from the human genome (Homo sapiens, UniProt Q9BWU1); assay: KINOMEscan kinase binding assay; details: kinase CDK11 (Entrez CDK19)
T19 construct: purchased Eurofin/DiscoverX
Summary of the method: as §1

[22] = target: T20, 384 kinases from the human genome (Homo sapiens, UniProt O94768); assay: KINOMEscan kinase binding assay; details: kinase DRAK2 (Entrez STK17B)
T20 construct: purchased Eurofin/DiscoverX
Summary of the method: as §1

[23] = target: T21, 384 kinases from the human genome (Homo sapiens, UniProt P50750); assay: KINOMEscan kinase binding assay; details: kinase CDK9 (Entrez CDK9)
T21 construct: purchased Eurofin/DiscoverX
Summary of the method: as §1

[24] = target: T22, 384 kinases from the human genome (Homo sapiens, UniProt P49840); assay: KINOMEscan kinase binding assay; details: kinase GSK3A (Entrez GSK3A)
T22 construct: purchased Eurofin/DiscoverX
Summary of the method: as §1

[25] = target: T23, 384 kinases from the human genome (Homo sapiens, UniProt Q12866); assay: KINOMEscan kinase binding assay; details: kinase MERTK (Entrez MERTK)
T23 construct: purchased Eurofin/DiscoverX
Summary of the method: as §1

[26] = target: T24, 384 kinases from the human genome (Homo sapiens, UniProt P54760); assay: KINOMEscan kinase binding assay; details: kinase EPHB4 (Entrez EPHB4)
T24 construct: purchased Eurofin/DiscoverX
Summary of the method: as §1

[27] = target: T25, 384 kinases from the human genome (Homo sapiens, UniProt Q8IWQ3); assay: KINOMEscan kinase binding assay; details: kinase BRSK2 (Entrez BRSK2)
T25 construct: purchased Eurofin/DiscoverX
Summary of the method: as §1

T25 sequence (Q8IWQ3 whole entry): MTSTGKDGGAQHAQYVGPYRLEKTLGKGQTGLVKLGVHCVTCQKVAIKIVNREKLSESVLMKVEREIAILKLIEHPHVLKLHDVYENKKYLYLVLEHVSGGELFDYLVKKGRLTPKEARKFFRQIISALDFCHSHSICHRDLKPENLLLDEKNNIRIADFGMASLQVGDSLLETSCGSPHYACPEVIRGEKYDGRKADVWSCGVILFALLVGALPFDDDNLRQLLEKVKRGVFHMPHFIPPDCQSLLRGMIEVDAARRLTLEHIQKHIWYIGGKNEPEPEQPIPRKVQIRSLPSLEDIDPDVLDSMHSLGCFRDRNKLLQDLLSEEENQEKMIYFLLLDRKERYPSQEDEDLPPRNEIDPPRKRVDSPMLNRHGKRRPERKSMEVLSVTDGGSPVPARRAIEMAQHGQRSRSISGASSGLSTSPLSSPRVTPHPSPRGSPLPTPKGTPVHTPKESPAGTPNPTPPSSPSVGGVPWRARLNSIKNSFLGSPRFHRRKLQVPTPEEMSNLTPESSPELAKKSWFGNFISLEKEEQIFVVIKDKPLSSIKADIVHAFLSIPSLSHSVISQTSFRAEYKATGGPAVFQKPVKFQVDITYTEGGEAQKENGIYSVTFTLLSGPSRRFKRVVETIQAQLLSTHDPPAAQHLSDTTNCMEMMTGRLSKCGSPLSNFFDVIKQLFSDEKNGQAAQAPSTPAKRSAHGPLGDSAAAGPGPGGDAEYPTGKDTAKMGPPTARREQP
T4 sequence (Q32MK0 whole entry): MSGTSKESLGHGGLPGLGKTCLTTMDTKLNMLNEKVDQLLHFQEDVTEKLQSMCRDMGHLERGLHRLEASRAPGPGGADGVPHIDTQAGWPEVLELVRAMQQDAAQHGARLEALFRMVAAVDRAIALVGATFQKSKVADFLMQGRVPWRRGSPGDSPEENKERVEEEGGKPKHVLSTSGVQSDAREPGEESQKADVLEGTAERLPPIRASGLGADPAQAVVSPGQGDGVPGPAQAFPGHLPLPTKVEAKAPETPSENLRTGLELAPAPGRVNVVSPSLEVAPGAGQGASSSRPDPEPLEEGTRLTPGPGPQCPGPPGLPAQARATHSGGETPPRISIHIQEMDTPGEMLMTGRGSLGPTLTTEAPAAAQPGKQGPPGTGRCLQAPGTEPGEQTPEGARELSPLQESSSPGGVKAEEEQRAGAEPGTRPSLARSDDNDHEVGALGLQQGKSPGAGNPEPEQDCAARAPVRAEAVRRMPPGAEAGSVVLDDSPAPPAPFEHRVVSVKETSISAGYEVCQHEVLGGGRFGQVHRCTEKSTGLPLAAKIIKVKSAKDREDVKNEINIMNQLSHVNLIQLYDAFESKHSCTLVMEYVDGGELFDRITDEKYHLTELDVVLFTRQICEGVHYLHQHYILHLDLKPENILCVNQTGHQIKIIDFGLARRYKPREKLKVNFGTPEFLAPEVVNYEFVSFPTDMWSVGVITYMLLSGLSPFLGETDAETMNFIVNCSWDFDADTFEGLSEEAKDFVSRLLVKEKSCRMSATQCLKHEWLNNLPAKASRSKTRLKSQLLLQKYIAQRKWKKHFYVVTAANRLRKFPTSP
T17 sequence (P14616 27-1297): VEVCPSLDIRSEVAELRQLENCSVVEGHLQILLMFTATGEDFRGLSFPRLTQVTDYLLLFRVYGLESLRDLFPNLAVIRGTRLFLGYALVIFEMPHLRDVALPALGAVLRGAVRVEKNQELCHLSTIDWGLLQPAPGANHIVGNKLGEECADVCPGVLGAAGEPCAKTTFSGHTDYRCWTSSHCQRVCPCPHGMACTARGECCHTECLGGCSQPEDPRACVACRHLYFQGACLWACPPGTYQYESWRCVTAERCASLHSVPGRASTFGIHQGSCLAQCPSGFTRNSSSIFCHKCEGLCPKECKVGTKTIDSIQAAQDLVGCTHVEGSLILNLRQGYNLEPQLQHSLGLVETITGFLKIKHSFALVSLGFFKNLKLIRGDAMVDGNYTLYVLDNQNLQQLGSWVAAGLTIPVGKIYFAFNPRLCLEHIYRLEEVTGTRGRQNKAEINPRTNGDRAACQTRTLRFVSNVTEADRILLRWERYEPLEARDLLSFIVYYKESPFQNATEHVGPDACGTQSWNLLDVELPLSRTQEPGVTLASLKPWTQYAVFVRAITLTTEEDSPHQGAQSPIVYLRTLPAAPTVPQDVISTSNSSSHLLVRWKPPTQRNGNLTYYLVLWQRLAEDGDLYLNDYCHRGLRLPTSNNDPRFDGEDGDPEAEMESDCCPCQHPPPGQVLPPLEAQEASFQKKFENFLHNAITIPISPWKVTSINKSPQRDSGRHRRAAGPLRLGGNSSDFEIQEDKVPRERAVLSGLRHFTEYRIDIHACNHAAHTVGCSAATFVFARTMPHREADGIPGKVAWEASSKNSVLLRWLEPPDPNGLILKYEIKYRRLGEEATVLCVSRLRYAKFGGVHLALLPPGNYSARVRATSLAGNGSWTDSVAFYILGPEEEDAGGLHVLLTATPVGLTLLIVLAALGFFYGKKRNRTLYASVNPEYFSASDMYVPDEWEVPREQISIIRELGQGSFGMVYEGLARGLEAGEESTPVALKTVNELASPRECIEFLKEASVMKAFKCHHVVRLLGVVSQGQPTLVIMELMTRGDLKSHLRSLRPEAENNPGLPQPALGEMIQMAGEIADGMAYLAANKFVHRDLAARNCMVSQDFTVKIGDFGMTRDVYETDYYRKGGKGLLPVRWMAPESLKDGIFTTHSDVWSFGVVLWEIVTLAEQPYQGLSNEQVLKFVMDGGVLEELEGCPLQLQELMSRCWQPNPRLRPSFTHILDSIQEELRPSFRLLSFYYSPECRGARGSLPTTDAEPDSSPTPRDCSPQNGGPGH
T9 sequence (Q8TBX8 whole entry): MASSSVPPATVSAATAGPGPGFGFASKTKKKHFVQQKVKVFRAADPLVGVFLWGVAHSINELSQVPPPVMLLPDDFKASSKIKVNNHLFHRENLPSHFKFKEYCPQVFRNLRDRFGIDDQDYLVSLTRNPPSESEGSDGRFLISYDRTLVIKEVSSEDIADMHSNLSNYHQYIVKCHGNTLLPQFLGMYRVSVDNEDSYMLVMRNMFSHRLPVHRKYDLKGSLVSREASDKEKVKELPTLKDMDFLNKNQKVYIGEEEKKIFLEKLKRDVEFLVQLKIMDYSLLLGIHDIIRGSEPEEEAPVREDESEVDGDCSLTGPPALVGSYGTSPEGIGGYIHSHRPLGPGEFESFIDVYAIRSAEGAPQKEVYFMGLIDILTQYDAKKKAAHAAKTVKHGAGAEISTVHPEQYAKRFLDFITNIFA
T1 sequence (P43403 whole entry): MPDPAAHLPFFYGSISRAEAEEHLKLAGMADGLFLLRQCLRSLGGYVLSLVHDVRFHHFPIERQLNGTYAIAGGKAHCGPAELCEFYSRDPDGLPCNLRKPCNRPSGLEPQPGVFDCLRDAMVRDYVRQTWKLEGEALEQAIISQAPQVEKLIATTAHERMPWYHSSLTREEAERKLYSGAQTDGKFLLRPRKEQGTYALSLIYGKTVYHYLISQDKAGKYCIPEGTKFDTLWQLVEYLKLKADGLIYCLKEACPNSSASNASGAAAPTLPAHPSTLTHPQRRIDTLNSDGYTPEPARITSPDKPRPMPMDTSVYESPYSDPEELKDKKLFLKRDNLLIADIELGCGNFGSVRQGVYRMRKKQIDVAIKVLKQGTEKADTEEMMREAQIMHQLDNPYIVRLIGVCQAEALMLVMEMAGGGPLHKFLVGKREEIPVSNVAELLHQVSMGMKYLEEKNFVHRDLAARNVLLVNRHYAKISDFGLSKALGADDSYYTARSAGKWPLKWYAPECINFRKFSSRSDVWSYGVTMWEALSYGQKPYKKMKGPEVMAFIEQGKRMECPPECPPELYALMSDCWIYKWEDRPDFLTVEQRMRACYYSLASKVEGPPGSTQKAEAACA
T14 sequence (P04049 whole entry): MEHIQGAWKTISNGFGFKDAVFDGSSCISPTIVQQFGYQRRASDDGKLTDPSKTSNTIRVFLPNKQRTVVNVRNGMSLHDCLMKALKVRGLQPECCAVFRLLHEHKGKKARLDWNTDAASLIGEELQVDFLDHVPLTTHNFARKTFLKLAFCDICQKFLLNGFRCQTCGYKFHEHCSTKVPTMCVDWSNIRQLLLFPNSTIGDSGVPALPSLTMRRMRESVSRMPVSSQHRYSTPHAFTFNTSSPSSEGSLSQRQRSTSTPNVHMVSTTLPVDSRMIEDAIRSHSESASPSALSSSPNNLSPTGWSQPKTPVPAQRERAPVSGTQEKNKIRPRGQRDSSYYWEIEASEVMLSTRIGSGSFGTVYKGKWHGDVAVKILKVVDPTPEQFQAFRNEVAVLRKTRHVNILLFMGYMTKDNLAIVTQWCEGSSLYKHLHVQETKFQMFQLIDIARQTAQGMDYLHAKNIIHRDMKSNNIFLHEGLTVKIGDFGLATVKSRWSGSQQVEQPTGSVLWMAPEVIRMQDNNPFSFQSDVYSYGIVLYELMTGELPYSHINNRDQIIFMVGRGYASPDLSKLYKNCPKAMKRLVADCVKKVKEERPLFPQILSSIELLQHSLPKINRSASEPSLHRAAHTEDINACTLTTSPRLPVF
T22 sequence (P49840 whole entry): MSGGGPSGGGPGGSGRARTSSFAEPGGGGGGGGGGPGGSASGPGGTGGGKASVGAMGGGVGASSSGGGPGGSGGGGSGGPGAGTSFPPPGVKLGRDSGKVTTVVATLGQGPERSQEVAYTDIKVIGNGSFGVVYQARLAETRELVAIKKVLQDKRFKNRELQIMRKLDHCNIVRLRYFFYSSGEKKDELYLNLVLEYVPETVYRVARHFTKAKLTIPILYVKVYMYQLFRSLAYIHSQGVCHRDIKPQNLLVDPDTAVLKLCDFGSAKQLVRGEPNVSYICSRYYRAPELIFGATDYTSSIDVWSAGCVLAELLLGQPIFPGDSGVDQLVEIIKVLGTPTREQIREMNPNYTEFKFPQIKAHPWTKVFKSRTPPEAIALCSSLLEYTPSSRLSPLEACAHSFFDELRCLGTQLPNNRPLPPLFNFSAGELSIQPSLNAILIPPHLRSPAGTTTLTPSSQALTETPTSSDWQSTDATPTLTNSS

## Nn1cnc2scc(-c3ccc(Cc4ccccc4)cc3)c2c1=O [Barbadin, reference compound]
[1]
  toxicity to HEK293 cells (flat, cobblestone appearance retained): non-toxic to cells; also recorded: nontoxic
[2]
  receptor internalization: blocked receptor internalization

## CC(C)C(=O)N1CCN(c2ccc(NC(=O)c3cc4ccccc4o3)cc2Cl)CC1 [Compound 21]
[3]
  Percent Control: 98%
[4]
  Percent Control: 100%
[5]
  Percent Control: 96%
[6]
  Percent Control: 90%
[7]
  Percent Control: 72%
[8]
  Percent Control: 100%
[9]
  Percent Control: 100%
[10]
  Percent Control: 88%
[11]
  Percent Control: 65%
[12]
  Percent Control: 79%
[13]
  Percent Control: 100%
[14]
  Percent Control: 100%
[15]
  Percent Control: 100%
[16]
  Percent Control: 79%
[17]
  Percent Control: 93%
[18]
  Percent Control: 76%
[19]
  Percent Control: 97%
[20]
  Percent Control: 97%
[21]
  Percent Control: 100%
[22]
  Percent Control: 94%
[23]
  Percent Control: 99%
[24]
  Percent Control: 92%
[25]
  Percent Control: 70%
[26]
  Percent Control: 77%
[27]
  Percent Control: 97%
